In article PMC10002548, “Amorphous System of Hesperetin and Piperine—Improvement of Apparent Solubility, Permeability, and Biological Activities” (International Journal of Molecular Sciences, 2023):
Converted amounts (≈) assume the structure as drawn.

Key:
physchem = assay type: physicochemical; details: for solubility thermodynamic at 3 h: pH 6.8, aqueous buffer, thermodynamic from solid
Method: (§1) The injection volume differed depending on the assay. […] The method’s duration was 10 min.
(§2) Phosphate buffer at pH 6.8 was prepared according to the following description: in a 1000-mL volumetric flask, we placed 250 mL of 0.2 N potassium dihydrogen phosphate solution, then added 112 mL of 0.2 N sodium hydroxide solution, and filled the mixture up to 1000 mL with distilled water. High-quality pure water was prepared using a Direct-Q 3 UV purification system (Millipore, Molsheim, France, model Exil SA 67120).
An excess amount of raw compounds and systems was placed in a 10 mL glass tube; then, 2.0 mL of phosphate buffer (pH 6.8) was added and left at room temperature for 3 h.

in vitro = in vitro ADME
Method: as §1
The sandwich consists of two 96-well microfilter plates.

[1] = PAMPA BBB permeability assay
From the text: For the stationary phase, a Dr. Maisch ReproSil-Pur Basic-C18 100 Å column with 5 µm particle size and 250 × 4.60 mm (Dr. Maisch, Ammerbuch-Entringen, Germany) was used. […] The mobile phase was vacuum-filtered through a 0.45 µm nylon filter (Phenomenex, Torrance, CA, USA). […] The injection volume differed depending on the assay.
The sandwich consists of two 96-well microfilter plates. The PAMPA systems contain two chambers: the donor chamber at the bottom and the acceptor chamber at the top. […] The plates were combined and then incubated for 3 h for both models in a humidity-saturated atmosphere with the temperature set at 37 °C. To assess the apparent permeability coefficient factor (Papp), 5.0 mg of raw compounds were dissolved in 1.0 mL of DMSO. Then, we followed the manufacturer’s guidelines for further performance in the assay. […] In the case of the studied systems, the solutions were first prepared in the same manner as in the solubility study. […] Next, the obtained solution was diluted 1:1 with donor solution for the GIT and BBB assays and placed in the donor compartment. The results were expressed as a concentration in the acceptor solution.

[2] = Dissolution study (paddle apparatus); assay type: physicochemical; details: phosphate buffer pH 6.8, 37 °C, 50 rpm; raw compound value after one hour
Method: as §1, §2
The dissolution study was performed on the paddle apparatus. The amount of the compound and systems corresponding to 7.0 mg of each plant-origin active ingredient was added to the dissolution medium. The vessels were filled with 500 mL of phosphate buffer, pH 6.8; the temperature was maintained at 37 °C, and the paddles were set at a stirring speed of 50 rotations per minute. The 2.0 mL samples were withdrawn at predetermined time points with the replacement of equal volumes of temperature-equilibrated media.

| Compound | Hesperetin Conc. (physchem; 3 h, pH 6.8) [mg/mL] | solubility thermodynamic at 3 h (physchem) [µg/mL] | concentration of hesperetin in the acceptor part, PAMPA GIT (in vitro; 3 h, pH 6.8) [ng/mL] | Papp (in vitro; PAMPA, raw compound dissolved in DMSO, donor pH ≈ 6.8, 3 h, 37 °C, read-out: apparent permeability coefficient (Papp), PAMPA GIT) [×10⁻⁶ cm/s] | Papp at 3 h ([1]; PAMPA, pH 7.4) [×10⁻⁶ cm/s] | concentration of hesperetin in the acceptor part, PAMPA BBB ([1]; donor pH ≈ 7.4, 3 h, 37 °C) [ng/mL] | hesperetin dissolved (% of the dose added to the dissolution medium) [2] [%] | Piperine Conc. (physchem; 3 h, pH 6.8) [mg/mL] | concentration of piperine in the acceptor part, PAMPA GIT (in vitro; 3 h, pH 6.8) [ng/mL] | Papp at 3 h (in vitro; PAMPA, pH 6.8) [×10⁻⁶ cm/s] | concentration of piperine in the acceptor part, PAMPA BBB ([1]; PAMPA, 3 h, pH 7.4) [ng/mL] | piperine dissolved (% of the dose added to the dissolution medium) [2] [%] |
| --- | --- | --- | --- | --- | --- | --- | --- | --- | --- | --- | --- | --- |
| COc1ccc([C@@H]2CC(=O)c3c(O)cc(O)cc3O2)cc1O [Hesperetin, hesperetin] | 0.005 ± 0.001 | 5 ± 1 (≈ 16.5 µM) | 25.8 ± 6.16 | 2.59 | 7.05 | 38.9 ± 16.6 | 23.75 ± 2.99 | – | – | – | – | – |
| O=C(/C=C/C=C/c1ccc2c(c1)OCO2)N1CCCCC1 [Piperine, piperine] | – | 6 ± 1 (≈ 21 µM) | – | – | 40 | – | – | 0.006 ± 0.001 | 2010 ± 100 | 37.3 | 1030 ± 104 | 27.79 ± 3.38 |
